ChEMBL document CHEMBL4673346, “Discovery of a benzimidazole series as the first highly potent and selective ACSL1 inhibitors” (Bioorg Med Chem Lett, 2021)
Values after ≈ are worked out from the molar mass of the structure shown.

Assays:
[1] = AUC in rat at 0.5 mg/kg, iv; format: ADME, organism-based; parameters: dose 0.5 mg/kg; settings: in vivo
Cytochrome P450 2C19 = Cytochrome P450 2C19 (Homo sapiens, UniProt P33261); test: Inhibition of CYP2C19 (unknown origin); format: ADME
Cytochrome P450 1A2 = target: T1, Cytochrome P450 1A2 (Homo sapiens, UniProt P05177); test: Inhibition of CYP1A2 (unknown origin); format: ADME
T1 sequence (P05177 whole entry): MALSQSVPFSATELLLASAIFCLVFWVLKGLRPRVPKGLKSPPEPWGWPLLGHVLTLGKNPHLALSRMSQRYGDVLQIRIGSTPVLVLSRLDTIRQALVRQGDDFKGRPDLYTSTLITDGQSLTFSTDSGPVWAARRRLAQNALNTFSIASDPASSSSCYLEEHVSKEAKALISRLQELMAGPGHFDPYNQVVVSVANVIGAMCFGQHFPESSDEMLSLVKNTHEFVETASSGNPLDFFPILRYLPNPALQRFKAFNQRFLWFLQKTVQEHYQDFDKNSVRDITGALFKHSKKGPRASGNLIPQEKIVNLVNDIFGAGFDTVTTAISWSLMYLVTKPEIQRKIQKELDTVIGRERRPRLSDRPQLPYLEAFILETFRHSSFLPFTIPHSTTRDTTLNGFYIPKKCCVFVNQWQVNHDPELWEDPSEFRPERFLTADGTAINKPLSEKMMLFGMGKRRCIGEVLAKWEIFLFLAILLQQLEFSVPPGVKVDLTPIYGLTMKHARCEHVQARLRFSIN

Cytochrome P450 3A4 = Cytochrome P450 3A4 (Homo sapiens, UniProt P08684); test: Inhibition of CYP3A4 (unknown origin); format: ADME
Sequence of Cytochrome P450 3A4 (P08684 whole entry): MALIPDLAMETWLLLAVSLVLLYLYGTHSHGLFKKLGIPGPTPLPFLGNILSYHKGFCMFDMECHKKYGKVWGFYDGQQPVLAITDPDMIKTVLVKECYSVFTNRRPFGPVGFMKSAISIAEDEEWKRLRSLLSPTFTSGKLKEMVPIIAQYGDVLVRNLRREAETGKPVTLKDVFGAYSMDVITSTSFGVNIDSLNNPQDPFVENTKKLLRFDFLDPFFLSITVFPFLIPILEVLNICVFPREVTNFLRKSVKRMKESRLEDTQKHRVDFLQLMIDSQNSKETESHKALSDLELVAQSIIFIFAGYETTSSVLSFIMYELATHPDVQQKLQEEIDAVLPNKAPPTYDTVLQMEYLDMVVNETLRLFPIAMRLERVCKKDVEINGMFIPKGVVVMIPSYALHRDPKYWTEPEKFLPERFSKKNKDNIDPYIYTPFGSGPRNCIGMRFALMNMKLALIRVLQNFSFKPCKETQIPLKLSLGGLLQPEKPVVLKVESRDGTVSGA

[2] = Half life in rat at 0.5 mg/kg, iv; format: ADME, organism-based; settings: in vivo
[3] = Metabolic stability in human liver microsomes assessed as compound remaining after 30 mins; format: ADME, Microsome; settings: read-out: Stabilty
[4] = Tmax in rat at 1 mg/kg, po; format: ADME, organism-based; settings: in vivo
Mus musculus [5] = test: In vivo inhibition of ACSL1 in mouse assessed as reduction in acyl-coA production in liver administered orally using palmitic acid as substrate and measured after 17 hrs; format: functional, organism-based; settings: dose 0.3-1 mg/kg
[6] = Cmax in rat at 1 mg/kg, po; format: ADME, organism-based; parameters: route oral, dose 1 mg/kg; settings: in vivo
[7] = Metabolic stability in rat liver microsomes assessed as compound remaining after 30 mins; format: ADME, Microsome; settings: read-out: Stabilty
[8] = Solubility of compound in pH 1.2; format: physicochemical; settings: buffer
[9] = target: T2, Long-chain-fatty-acid--CoA ligase 1 (Homo sapiens, UniProt P33121); test: Inhibition of recombinant human ACSL1 assessed as reduction in […] prodution incubated for 90 mins in presence of Coenzyme A, ATP and MgCl2 by MALDI-TOF MS analysis
T2 sequence (P33121 whole entry): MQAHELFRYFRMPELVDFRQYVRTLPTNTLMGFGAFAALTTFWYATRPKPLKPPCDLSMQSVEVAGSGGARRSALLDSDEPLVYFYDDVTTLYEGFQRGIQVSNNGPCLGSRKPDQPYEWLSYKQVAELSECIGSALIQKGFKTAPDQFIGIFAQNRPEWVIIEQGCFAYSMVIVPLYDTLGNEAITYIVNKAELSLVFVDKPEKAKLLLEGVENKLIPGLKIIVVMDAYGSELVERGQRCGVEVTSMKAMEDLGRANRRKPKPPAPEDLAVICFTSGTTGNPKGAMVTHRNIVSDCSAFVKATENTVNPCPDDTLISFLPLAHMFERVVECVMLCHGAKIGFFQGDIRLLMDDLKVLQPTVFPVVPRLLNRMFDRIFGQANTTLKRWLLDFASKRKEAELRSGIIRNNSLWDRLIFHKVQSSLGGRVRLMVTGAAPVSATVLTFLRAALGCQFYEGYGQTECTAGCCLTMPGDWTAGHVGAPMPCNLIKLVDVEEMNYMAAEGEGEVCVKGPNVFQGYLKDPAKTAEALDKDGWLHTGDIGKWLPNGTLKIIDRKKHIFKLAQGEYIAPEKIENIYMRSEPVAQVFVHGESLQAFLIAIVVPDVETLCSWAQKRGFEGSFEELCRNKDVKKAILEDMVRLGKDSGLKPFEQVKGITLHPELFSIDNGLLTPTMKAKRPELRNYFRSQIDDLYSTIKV

[10] = AUC in rat at 1 mg/kg, po; format: ADME, organism-based; parameters: dose 1 mg/kg; settings: in vivo
[11] = Solubility of compound in pH 6.8; format: physicochemical; settings: buffer
[12] = Total clearance in rat at 0.5 mg/kg, iv; format: ADME, organism-based; settings: in vivo
Mus musculus [13] = test: In vivo inhibition of ACSL1 in mouse assessed as reduction in acyl-coA production in liver administered orally using palmitoleic acid as substrate and measured after 17 hrs; format: functional, organism-based; settings: dose 0.3-1 mg/kg
[14] = Volume of distribution at steady state in rat at 0.5 mg/kg, iv; format: ADME, organism-based; settings: in vivo, read-out: Vdss
[15] = target: T3, Long-chain-fatty-acid--CoA ligase 5 (Homo sapiens, UniProt Q9ULC5); test: Inhibition of recombinant human ACSL5 assessed as reduction in […] prodution incubated for 90 mins in presence of Coenzyme A, ATP and MgCl2 by MALDI-TOF MS analysis
T3 sequence (Q9ULC5 whole entry): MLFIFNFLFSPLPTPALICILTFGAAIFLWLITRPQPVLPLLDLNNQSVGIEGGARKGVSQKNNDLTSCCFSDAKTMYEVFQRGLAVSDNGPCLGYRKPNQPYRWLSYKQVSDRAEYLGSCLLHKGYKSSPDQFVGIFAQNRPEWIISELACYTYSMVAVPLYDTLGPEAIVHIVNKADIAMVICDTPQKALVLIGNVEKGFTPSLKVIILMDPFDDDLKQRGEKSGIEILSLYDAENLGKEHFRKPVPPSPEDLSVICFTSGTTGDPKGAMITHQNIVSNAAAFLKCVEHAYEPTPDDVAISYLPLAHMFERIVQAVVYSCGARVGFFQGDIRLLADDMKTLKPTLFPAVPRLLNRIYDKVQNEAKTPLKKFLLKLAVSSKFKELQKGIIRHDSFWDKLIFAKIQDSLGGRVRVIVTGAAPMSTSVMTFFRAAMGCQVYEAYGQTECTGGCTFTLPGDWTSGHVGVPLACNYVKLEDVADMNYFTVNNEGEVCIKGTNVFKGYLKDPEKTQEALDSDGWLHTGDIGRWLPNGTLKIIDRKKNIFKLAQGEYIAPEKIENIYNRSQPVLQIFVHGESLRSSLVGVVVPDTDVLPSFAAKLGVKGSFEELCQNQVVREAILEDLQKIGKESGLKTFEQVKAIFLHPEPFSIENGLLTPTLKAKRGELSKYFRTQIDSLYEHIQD

Sequence of Cytochrome P450 2C19 (P33261 whole entry): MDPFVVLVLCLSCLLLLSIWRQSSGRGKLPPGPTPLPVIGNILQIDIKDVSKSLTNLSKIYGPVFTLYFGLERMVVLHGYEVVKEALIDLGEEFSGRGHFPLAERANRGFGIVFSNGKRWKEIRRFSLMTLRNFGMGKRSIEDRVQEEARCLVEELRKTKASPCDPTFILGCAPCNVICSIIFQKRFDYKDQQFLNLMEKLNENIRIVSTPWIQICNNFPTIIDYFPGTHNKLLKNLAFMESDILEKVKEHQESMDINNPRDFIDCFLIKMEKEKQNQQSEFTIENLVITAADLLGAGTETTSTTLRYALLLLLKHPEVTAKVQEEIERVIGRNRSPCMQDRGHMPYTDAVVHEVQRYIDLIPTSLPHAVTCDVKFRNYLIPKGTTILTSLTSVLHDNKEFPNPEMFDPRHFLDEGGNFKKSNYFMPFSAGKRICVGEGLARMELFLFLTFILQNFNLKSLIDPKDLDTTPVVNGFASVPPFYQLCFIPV

- AUC [1]: 4970 ng·h/mL
- IC50 (Cytochrome P450 2C19): > 20 µM
- IC50 (Cytochrome P450 1A2): > 20 µM
- IC50 (Cytochrome P450 3A4): > 20 µM
- half-life [2]: 2.8 h
- remaining at 0.5 h [3]: 96%
- Tmax [4]: 2.5 h
- Cmax [6]: 1110 ng/mL
- remaining at 0.5 h [7]: 93%
- solubility [8]: 307 µg/mL (≈ 811 µM)
- IC50 [9]: 0.042 µM
- AUC [10]: 11800 ng·h/mL
- solubility [11]: 8.6 µg/mL (≈ 22.7 µM)
- clearance [12]: 1.75 mL/min/kg
- Vd [14]: 0.38 L/kg
- IC50 [15]: > 200 µM
SMILES: Cc1cccc(Cc2nc3cc(O[C@H]4CC[C@@H](C(=O)O)CC4)ccc3n2C)c1
- inhibition (Mus musculus [5]): Dose-dependent effect
- inhibition (Mus musculus [13]): Dose-dependent effect
